In patent US9738878B2, “HIV-1 integrase derived peptides and compositions” (priority 2008, dated 2017):
No end group written: not given here.

What was measured:
Rev 13-23 = molecular target: T1, Rev 13-23 (Human immunodeficiency virus type 1 group M subtype B, UniProt P04618); experiment: ELISA-based binding assay, biotinylated-BSA-Rev 13-23 conjugate on peptide-coated plates; set-up: species or system HIV-1
T1 construct: biotinylated-BSA-Rev 13-23 or Rev 53-67 conjugates
Procedure: (§1) Protein-peptide binding was estimated using an ELISA-based binding assay as described previously (Rosenbluh et al., 2006, Anal Biochem 352, 157-168). Briefly, Maxisorp plates (Nunc) were incubated at room temperature for 2 h with 200 μl of 10 μg/ml synthetic peptide in carbonate buffer. After incubation, the solution was removed, the plates were washed three times with PBS, and 200 μl of 10% BSA in PBS (w/v) was added for 2 h at room temperature. […] Following three washes with PBS, the concentration of bound biotinylated molecules was estimated after the addition of streptavidin-horseradish peroxidase (HRP) conjugate (Sigma), as described previously (Melchior et al., 1993, J Cell Biol 123, 1649-1659). The concentration of bound protein molecules was estimated after the addition of anti-GFP mouse antibody (Santa Cruz) which then was interacted with rabbit anti-mouse IgG antibody conjugated to HRP. The enzymatic activity of HRP was estimated by monitoring the product's optical density (OD) at 490 nm using an ELISA plate reader (Tecan Sunrise). Each measurement was performed at least in duplicate.
(§2) Selection of peptide sequences that interact with the Rev protein, Rev-derived peptides, and the IN itself was made by screening of an N peptide library (NIH AIDS Research and Reference Reagent Program, Division of AIDS, NIAID, NIH: HIV-1 Consensus B Pol (15-mer) peptides—Complete Set from DAIDS, NIAID), using an ELISA-based assay system.
(§3) FIG. 1: 1A—Rev-GFP or GFP alone were incubated in ELISA plates coated with either INr-1 (♦, ⋄, respectively), INr-2 (▪, □, respectively) or INS (▴, Δ, respectively) and binding was determined as described above. 1B—The IN protein was first bound to the ELISA plate and then incubated with Rev-GFP to obtain a Rev-IN complex. The complex was then incubated with either one of the INr peptides or the INS peptide at the designated Rev-GFP:peptide ratio. Wells were then washed and the amount of bound Rev-GFP was determined by mouse anti-GFP antibody and secondary rabbit anti-mouse HRP-conjugated antibody. […]

IN [1] = molecular target: T2, IN (Human immunodeficiency virus type 1 group M subtype B, UniProt P12497); experiment: IN enzymatic activity assay; assay type: biochemical, HIV-1; settings: for integrase activity inhibited by Rev-derived peptide, restoration: molar ratio 1:10 (Rev peptide:INr peptide)
T2 construct: The histidine-tagged IN expression vector was a generous gift from Dr. A. Engelman; histidine tag; made in house
Procedure: The IN enzymatic activity assay was performed using a previously described assay system (Craigie et al., 1991, Nucleic Acids Res 19, 2729-2734, Hwang et al., 2000, Nucleic Acids Res 28, 4884-4892). Briefly, the oligonucleotide substrate consisted of one oligo (5′-[…]-3′) labeled with biotin at the 3′ end and the other oligo (5′-[…]-3′) labeled with digoxigenin at the 5′ end. When inhibition was studied, the IN was preincubated with the peptide or protein for 15 min prior to addition of the DNA substrate.
FIG. 2 (A) Rev-GFP (dark green) or GFP (turquoise) were incubated at different molar ratios with IN (390 nM) and the IN enzymatic activity was determined as described above. (B) Rev-GFP was preincubated with the indicated INS peptide at a molar ratio of 5:1 (peptide:Rev-GFP) and the resultant mixture was added to a solution containing IN to give a molar ratio of 1:200 and 1:400 (IN:Rev-GFP). Following an incubation period, IN activity was estimated as described above. (C) Same as (B) but with the INrs peptides.
FIG. 3 A-C IN (390 nM) was incubated with 50 μM of the Rev-derived peptides (1:300 IN:Rev-derived peptide, Rev13-23 or Rev 53-67) and then the INS peptide was added at different molar ratios ranging from 10:1 to 1:10 (Rev peptide:INS peptide) (A) IN (390 nM) was incubated with 50 μM of the Rev-derived peptides (1:300 IN:Rev-derived peptide), (Rev13-23 (B) and Rev 53-67 (C)) and then the INr peptides were added at different molar ratios ranging from 10:1 to 1:10 (Rev peptide:INr peptide).

Rev-GFP = experiment: ELISA-based binding assay, Rev-GFP on peptide-coated plates; set-up: species or system HIV-1; settings: screen of IN peptide library
Procedure: as §1, §2, §3

Rev 53-67 = molecular target: T3, Rev 53-67 (Human immunodeficiency virus type 1 group M subtype B, UniProt P04618); experiment: ELISA-based binding assay, biotinylated-BSA-Rev 53-67 conjugate on peptide-coated plates; set-up: species or system HIV-1
T3 construct: biotinylated-BSA-Rev 13-23 or Rev 53-67 conjugates
Procedure: as §1, §2, §3

HeLa TZM-b1 cells = experiment: Cell viability, MTT assay; assay type: cell-based; settings: up to about 62 μM
[2] = tested on: HIV-1 infected lymphocyte cells; experiment: Lysis of HIV-1 infected cells after one cycle of infection, MTT; settings: 62.5-150 μM, ΔENV/VSV-G HIV-1 MOI 10, MTT 48 h post infection
IN [3] = molecular target: T2, IN; experiment: ELISA-based binding assay, IN protein; set-up: species or system HIV-1
Procedure: Each measurement was performed at least in duplicate.
Selection of peptide sequences that interact with the Rev protein, Rev-derived peptides, and the IN itself was made by screening of an N peptide library (NIH AIDS Research and Reference Reagent Program, Division of AIDS, NIAID, NIH: HIV-1 Consensus B Pol (15-mer) peptides—Complete Set from DAIDS, NIAID), using an ELISA-based assay system. […] This observation further confirmed that the sequence of the NS and INrs peptides within the N protein mediate the interaction with the Rev protein. The NS peptide interacted with both Rev 13-23 and Rev 53-67 peptides while Nr-1 and Nr-2 interacted with the Rev 53-67 and Rev 13-23 peptides respectively (FIG. 1D and Table 1). […] This was inferred from experiments showing that biotinylated-BSA-Rev 13-23 or Rev 53-67 conjugates were able to interact with NS or INrs peptides-coated plates (FIGS. 1C and 1D).

Rev-IN complex = settings: peptide added to preformed complex
[4] = Survival of HIV-1 infected and uninfected Hela cells; assay type: cell-based; settings: human, uninfected HeLa cells, read-out: intact viable uninfected Hela cells
Procedure: FIG. 7 Percentage of viable infected and uninfected Hela cells normalized every two days to the number of cells in the non treated non infected cells sample. Cells were infected with WT HIV-1 at MOI of 0.01 and the treated cells were added 12.5 μM of INS.

HIV-1 DNA integration = experiment: Copy numbers of HIV-1 DNA integrated into cellular genome, real-time PCR; assay type: cell-based; settings: H9 cells, 24 hours post infection, single cycle of infection, Δenv/VSV-G HIV-1
Procedure: During the second-round PCR, the first-round PCR product could be specifically amplified by using the tag-specific primer (tag-F 5′-[…]-3′) and the LTR primer (LTR-R 5′-[…]-3′) designed by PrimerExpress (Applied Biosystems) using default settings. The second-round PCR was performed on 1/25th of the first-round PCR product in a mixture containing 300 nM of each primer, 12.5 μl of 2λ SYBR Green master mixture (Applied Biosystems) at a final volume of 25 μl, run on an ABI PRIZM 7700 (Applied Biosystems).
For generation a standard calibration curve, the SVC21 plasmid containing the full-length HIV-1HXB2 viral DNA was used as a template. In the first-round PCR, the LTR-TAG-F and LTR-R primers were used and the second-round PCR was performed using the tag-F and LTR-R primers. The standard linear curve was in the range of 5 ng to 0.25 fg (R=0.99). DNA samples were assayed with quadruplets of each sample. The cell equivalents in the sample DNA were calculated based on amplification of the 18S gene by real-time PCR as described in (Field et al, 2002, Biochem J 368, 855-864).
. (B) H9 T-lymphoid cells were incubated with the indicated peptides (12.5 μM) or AZT (2 μM) and following HIV-1 infection, the integrated viral DNA/cell was assessed by real-time PCR following a single cycle of infection at a MOI of 5 of Δenv/VSV-G HIV-1.

HIV-1 [5] = settings: H9 and Sup-T1 cells, peptide 12.5 μM
Procedure: Cultured lymphocytes (1×10^5) were centrifuged for 5 min at 2000 rpm and after removal of the supernatant, the cells were resuspended in 0.2 to 0.5 ml of RPMI 1640 medium containing virus at a multiplicity of infection (MOI) of 0.01, 0.1 and 5. Following absorption for 2 h at 37° C., the cells were washed to remove unbound virus and then incubated at the same temperature for an additional 1 to 8 days.
Lymphoid cells were incubated with the indicated peptides for 2 h and following infection with wild-type HIV-1 at a MOI of 0.01 (as described above), the cells were incubated for 8 days, or 48 h at a MOI of 1. The amount of p24 protein was estimated in the cell medium every 2 days exactly as described previously.
The amount of viral P24 (A and B) and virus titer (C and D) were determined every 2 days by ELISA and MAGI assay (Kimpton 1992, J Virol 66, 2232-2239), respectively. The concentration of azidothymidine (AZT) used was 2 μM.

HeLa cells = experiment: Cell-penetration experiments, fluorescein-labeled peptides, confocal microscopy; assay type: cell-based; settings: fluorescein-labeled peptide 10 μM
Procedure: Fluorescein-labeled peptides at a final concentration of 10 μM in PBS were incubated with HeLa cells for 1 h at 37° C.
The cells were then washed three times with PBS and visualized by a confocal microscope. […] (C) same as (B) but in H9 lymphocytes

HIV-1 [6] = tested on: HIV-1
Procedure: Quantitative titration of HIV-1 was carried out using the MAGI assay, as described by Kimpton and Emerman (J Virol 1992, 66, 2232-2239). […] Two days post-infection (PI), cultured cells were fixed and ƒl-galactosidase was estimated as described above. Blue cells were counted under a light microscope at 200× magnification.
The concentration of azidothymidine (AZT) used was 2 μM.

Row | Sequence | interaction with Rev 13-23 peptide (Rev 13-23) | abrogation of inhibitory effect of Rev 53-67 peptide on IN activity (IN [1]; IN 390 nM, Rev peptide 50 μM) | integrase activity inhibited by Rev-derived peptide, restoration (IN [1]) | interaction with Rev-GFP (Rev-GFP) | interaction with Rev 53-67 peptide (Rev 53-67) | abrogation of inhibitory effect of Rev 13-23 peptide on IN activity (IN [1]; IN 390 nM, Rev peptide 50 μM) | cell toxicity (HeLa TZM-b1 cells) | cell death after one cycle of infection [2] | interaction with the IN protein itself (IN [3]) | release of bound Rev-GFP from the complex formed between IN and Rev-GFP (Rev-IN complex) | viability at 12.5 µM [4] | enzymatic activity of HIV-1 IN (IN [1]; in the absence of the inhibitory Rev peptide) | integrase activity inhibited by Rev-derived peptides, restoration (IN [1]; molar ratio Rev:INS peptide 1:5) | integrase activity in presence of Rev-derived peptides (IN [1]; molar ratio Rev:INS peptide 1:10) | abrogation of Rev-GFP inhibition of IN activity (IN [1]; peptide:Rev-GFP 5:1, IN:Rev-GFP 1:200 and 1:400) | stimulation of integration per cell (HIV-1 DNA integration) | appearance of viral p24 antigen (HIV-1 [5]) | cell penetration (HeLa cells) | appearance of infectious viral particles (HIV-1 [6])
1 | WTHLEGKIILVAVHVA [INr-1] | not with the Rev 13-23 peptide | abrogated the inhibitory effect | fully restored | specifically interacting | interacted | – | – | – | – | – | – | – | – | – | – | – | – | – | –
2 | WGSNFTSTTVKA [INr-2] | interacted | – | fully restored | specifically interacting | not with Rev 53-67 | abrogated the inhibitory effect | – | – | – | – | – | – | – | – | – | – | – | – | –
3 | WTAVQMAVFIHNFKRK [INS] | interacted | – | – | specifically interacting | interacted | – | non-toxic | induce killing of only infected lymphocyte cells | interact | induces the release of the bound Rev-GFP | ~100% | significantly stimulated | fully restored | stimulate the IN activity | abrogated the inhibitory activities of Rev-GFP | 2- to 5 fold | Stimulation | cell-permeable | stimulation
